Literature values as cited in patent US20090117053A1, “LOCAL DELIVERY OF 5-AMINOLEVULINIC-ACID BASED COMPOUNDS TO TISSUES AND ORGANS FOR DIAGNOSTIC AND THERAPEUTIC PURPOSES” (Boston Scientific Scimed, Inc., priority 2007, published 2009).

Assays:
[1] = comparison between ALA-based compounds
protoporphyrin IX (PPIX) = details: compared with ALA hydrochloride and various other ALA ester hydrochlorides
[2] = compared with ALA hydrochloride and various other ALA ester hydrochlorides

Compound	hydrophilicity (relative ranking) [1]	PPIX levels (protoporphyrin IX (PPIX))	phototoxicity [2]
CCOC(=O)CCC(=O)CN.Cl [ALA ethyl ester hydrochloride]	more hydrophilic than ALA n-propyl ester hydrochloride		
Cl.NCC(=O)CCC(=O)O [ALA hydrochloride, 5-aminolevulinic acid hydrochloride]	more hydrophilic than ALA methyl ester hydrochloride		
COC(=O)CCC(=O)CN.Cl [ALA methyl ester hydrochloride]	more hydrophilic than ALA ethyl ester hydrochloride		
Cl.NCC(=O)CCC(=O)OCCC(F)(F)C(F)(F)C(F)(F)C(F)(F)F [ALA nonafluorohexylester hydrochloride]		appreciably increased PPIX levels	improved phototoxicity
CCCCCCSC(=O)CCC(=O)CN.Cl [ALA thiohexylester hydrochloride, ALA thiohexyl ester hydrochloride]		appreciably increased PPIX levels	improved phototoxicity
ALA dibenzyldiester dihydrochloride		appreciably increased PPIX levels	improved phototoxicity
